According to publication PMC7037546, “High Cell Selectivity and Bactericidal Mechanism of Symmetric Peptides Centered on D-Pro–Gly Pairs” (International Journal of Molecular Sciences, 2020):
In brackets after ≈: the same amount, converted by molar mass. Non-standard residues stand in square brackets, D forms with d. Residues, ends and D or L forms follow the SMILES beside them. No end group written: not given here.

Legend:
[1] = system: Escherichia coli ATCC25922; experiment: microbe, parasite or virus in culture; conditions: ATCC25922, 16 h
Protocol: (§1) The antimicrobial activity of the designed peptides was examined using the micro-dilution method described previously. The bacteria were cultured for 16 h in MHB at 37 °C, and the microbial suspension was diluted to a final concentration of 10^5 colony-forming units (CFU)/mL. Then, 50 µL of MHB containing different concentrations peptides (0.25–256 µM) was mixed with 50 µL of bacterial solution, and the mixture was added to a 96-well plate. […] The assays were performed three times.

E. coli ATCC25922 = format: cell-based, Escherichia coli; conditions: for MIC after pH treatment, pH 4 / MIC after pH treatment, pH 6 / MIC after pH treatment, pH 8 / MIC after pH treatment, pH 10: ATCC25922, 1 h; for MIC after temperature treatment, 0 °C / MIC after temperature treatment, 37 °C / MIC after temperature treatment, 100 °C / MIC in the presence of FeCl3 / MIC in the presence of KCl / MIC in the presence of MgCl2 / MIC in the presence of NH4Cl / MIC in the presence of NaCl / MIC in the presence of ZnCl2 / MIC, Control / MIC, Control (pH 7): ATCC25922, 16 h
Protocol: as §1
The salt, temperature, and pH sensitivities of designed peptides were determined by MIC assay as described previously. For the salt sensitivity assay, peptides were diluted in deionized water containing different salts, and mixed with E. coli ATCC25922 (10^5 CFU/mL). The final physiological concentrations of different salts were as follows: 150 mM NaCl, 4.5 mM KCl, 6 μM NH4Cl, 1 mM MgCl2, 8 μM ZnCl2, and 4 μM FeCl3. For temperature sensitivity, peptides were cooled on ice for 10 min, and incubated at 37 °C and 100 °C for 30 min. For pH sensitivity, peptides were treated with different pH for 1 h. Briefly, peptides were diluted in deionized water, and the pH of the solution was adjusted to 4.0, 6.0, 8.0, and 10.0 with HCl or NaOH. The subsequent steps were the same as for the MIC measurements. These tests were performed three times.

HEK293T cells = experiment: Cytotoxicity, CCK-8 assay; format: cell-based, human; conditions: 64 μM peptide, 16 h, CCK-8, OD 450 nm
Protocol: (§2) The cytotoxicity was detected according to a CCK-8 assay as described previously. Briefly, RAW 264.7 and HEK293T cells were placed into 96-well plates at a density of 1.0–2.0 × 10^5, and then cultured for 16 h under conditions of 5% CO2. Then, two-fold diluted peptides in DMEM were added to the plates. After 16 h of culturing, CCK-8 (10%, v/v) was put into each well containing cell culture, and mixtures were cultured for 2 h. The cytotoxicity assay was examined by measuring the OD of the mixtures at 450 nm (Microplate reader, TECAN GENios F129004, Tecan, Salzburg, Austria). The assays were performed three times.

Gram-positive bacteria = experiment: Geometric mean of MICs and therapeutic index, Gram (+); format: cell-based; conditions: geometric mean over the Gram-positive strains of Table 2; 256 μM used when no activity at 128 μM
Protocol: as §1

S. aureus ATCC29213 = conditions: ATCC29213, 16 h
Protocol: as §1

[2] = system: Klebsiella pneumonia CMCC46117; conditions: CMCC46117, 16 h
Protocol: as §1

[3] = system: Enterococcus faecalis ATCC29212; conditions: ATCC29212, 16 h
Protocol: as §1

[4] = system: methicillin-resistant S. aureus ATCC43300; conditions: ATCC43300, 16 h
Protocol: as §1

[5] = system: Salmonella Pullorum NCTC5776; conditions: NCTC5776, 16 h
Protocol: as §1

E. coli K88 = conditions: micro-dilution in MHB, 10^5 CFU/mL, 16 h, OD 492 nm, performed three times
Protocol: as §1

[6] = system: Staphylococcus aureus ATCC25923; conditions: ATCC25923, 16 h
Protocol: as §1

[7] = system: Pseudomonas aeruginosa ATCC27853; conditions: ATCC27853, 16 h
Protocol: as §1

Gram-negative bacteria = conditions: 16 h
Protocol: as §1

RAW 264.7 cells = experiment: Cytotoxicity, CCK-8 assay; format: cell-based, murine; conditions: 64 μM peptide, 16 h, CCK-8, OD 450 nm
Protocol: as §2

Compound	MIC after pH treatment, pH 4 (E. coli ATCC25922) [µM]	MIC after pH treatment, pH 6 (E. coli ATCC25922) [µM]	MIC after pH treatment, pH 8 (E. coli ATCC25922) [µM]	MIC after pH treatment, pH 10 (E. coli ATCC25922) [µM]	MIC after temperature treatment, 0 °C (E. coli ATCC25922) [µM]	MIC after temperature treatment, 37 °C (E. coli ATCC25922) [µM]	MIC after temperature treatment, 100 °C (E. coli ATCC25922) [µM]	MIC in the presence of FeCl3 (E. coli ATCC25922) [µM]	MIC in the presence of KCl (E. coli ATCC25922) [µM]	MIC in the presence of MgCl2 (E. coli ATCC25922) [µM]	MIC in the presence of NH4Cl (E. coli ATCC25922) [µM]	MIC in the presence of NaCl (E. coli ATCC25922) [µM]	MIC in the presence of ZnCl2 (E. coli ATCC25922) [µM]	MIC, Control (E. coli ATCC25922) [µM]	MIC, Control (pH 7) (E. coli ATCC25922) [µM]	cell survival rate (HEK293T cells)	MIC [1] [µM]	GM (geometric mean of MICs), Gram (+) (Gram-positive bacteria) [µM]	MIC (S. aureus ATCC29213) [µM]	MIC [2] [µM]	other results
O=C(N[C@H](CO)[C@H](O)c1ccc([N+](=O)[O-])cc1)C(Cl)Cl [chloramphenicol, reference compound]	–	–	–	–	–	–	–	–	–	–	–	–	–	–	–	–	–	–	–	–	MIC ([1]; Escherichia coli): 8 µM (≈ 2.59 µg/mL)
IIRIIRRGGRRIIRII-NH2 [IRGG]	16	8	8	16	8	8	8	8	8	16	8	64	16	8	8	96%	8	256	>128	32	MIC [3]: >128 µM; MIC [4]: >128 µM; MIC [5]: 32 µM; MIC (E. coli K88): 16 µM; MIC [6]: >128 µM; MIC [7]: 32 µM; GM (geometric mean of MICs), Gram (−) (Gram-negative bacteria): 21.1 µM; cell survival rate (RAW 264.7 cells): 95%
CC[C@H](C)[C@H](N)C(=O)N[C@H](C(=O)N[C@@H](CCCNC(=N)N)C(=O)N[C@H](C(=O)N[C@H](C(=O)N[C@@H](CCCNC(=N)N)C(=O)N[C@@H](CCCNC(=N)N)C(=O)N1CCC[C@@H]1C(=O)NCC(=O)N[C@@H](CCCNC(=N)N)C(=O)N[C@@H](CCCNC(=N)N)C(=O)N[C@H](C(=O)N[C@H](C(=O)N[C@@H](CCCNC(=N)N)C(=O)N[C@H](C(=O)N[C@H](C(N)=O)[C@@H](C)CC)[C@@H](C)CC)[C@@H](C)CC)[C@@H](C)CC)[C@@H](C)CC)[C@@H](C)CC)[C@@H](C)CC [IRpG] (H-IIRIIRR[dP]GRRIIRII-NH2)	16	4	8	16	4 (≈ 8.05 µg/mL)	4 (≈ 8.05 µg/mL)	4 (≈ 8.05 µg/mL)	4	4	8	4	32	4	4 (≈ 8.05 µg/mL)	4	98%	4 (≈ 8.05 µg/mL)	256	>128	32 (≈ 64.4 µg/mL)	MIC [3]: >128 µM; MIC [4]: >128 µM; MIC [5]: 16 µM (≈ 32.2 µg/mL); MIC (E. coli K88): 16 µM (≈ 32.2 µg/mL); MIC [6]: >128 µM; MIC [7]: 32 µM (≈ 64.4 µg/mL); GM (geometric mean of MICs), Gram (−) (Gram-negative bacteria): 16 µM; cell survival rate (RAW 264.7 cells): 98%
O=C(O)c1cn(C2CC2)c2cc(N3CCNCC3)c(F)cc2c1=O [ciprofloxacin, reference compound]	–	–	–	–	–	–	–	–	–	–	–	–	–	–	–	–	–	–	–	–	MIC ([1]; Escherichia coli): 8 µM (≈ 2.65 µg/mL)
FFRFFRRGGRRFFRFF-NH2 [FRGG]	32	8	8	32	8	8	8	8	8	16	8	64	16	8	8	76%	8	26.9	16	16	MIC [3]: 32 µM; MIC [4]: 32 µM; MIC [5]: 16 µM; MIC (E. coli K88): 16 µM; MIC [6]: 32 µM; MIC [7]: 32 µM; GM (geometric mean of MICs), Gram (−) (Gram-negative bacteria): 16 µM; cell survival rate (RAW 264.7 cells): 66%
CO/N=C(\C(=O)N[C@@H]1C(=O)N2C(C(=O)O)=C(COC(C)=O)CS[C@H]12)c1csc(N)n1 [cefotaxime, reference compound]	–	–	–	–	–	–	–	–	–	–	–	–	–	–	–	–	–	–	–	–	MIC ([1]; Escherichia coli): 2 µM (≈ 0.911 µg/mL)
[H]/N=C(/N)N[C@H]1[C@H](O)[C@@H](O)[C@H](O[C@@H]2O[C@@H](C)[C@](O)(C=O)[C@H]2O[C@@H]2O[C@@H](CO)[C@H](O)[C@@H](O)[C@@H]2NC)[C@@H](N/C(N)=N\[H])[C@@H]1O [streptomycin, reference compound]	–	–	–	–	–	–	–	–	–	–	–	–	–	–	–	–	–	–	–	–	MIC ([1]; Escherichia coli): 2 µM (≈ 1.16 µg/mL)
CC(C)C[C@H](NC(=O)CN)C(=O)N[C@@H](CCCNC(=N)N)C(=O)N[C@@H](CC(C)C)C(=O)N[C@@H](CC(C)C)C(=O)N[C@@H](CCCNC(=N)N)C(=O)N[C@@H](CCCNC(=N)N)C(=O)N[C@@H](CC(C)C)C(=O)N[C@@H](CC(C)C)C(=O)N[C@@H](CCCNC(=N)N)C(=O)N[C@@H](CCCNC(=N)N)C(=O)N[C@@H](CC(C)C)C(=O)N[C@@H](CC(C)C)C(=O)N[C@@H](CCCNC(=N)N)C(=O)N[C@@H](CC(C)C)C(=O)N1CCC[C@@H]1C(N)=O [LRα] (H-GLRLLRRLLRRLLRL[dP]-NH2)	2	2	2	4	2 (≈ 4.03 µg/mL)	2 (≈ 4.03 µg/mL)	2 (≈ 4.03 µg/mL)	2	2	2	2	8	2	2 (≈ 4.03 µg/mL)	2	less than 10%	2 (≈ 4.03 µg/mL)	8	8 (≈ 16.1 µg/mL)	4 (≈ 8.05 µg/mL)	MIC [3]: 16 µM (≈ 32.2 µg/mL); MIC [4]: 8 µM (≈ 16.1 µg/mL); MIC [5]: 2 µM (≈ 4.03 µg/mL); MIC (E. coli K88): 4 µM (≈ 8.05 µg/mL); MIC [6]: 4 µM (≈ 8.05 µg/mL); MIC [7]: 4 µM (≈ 8.05 µg/mL); GM (geometric mean of MICs), Gram (−) (Gram-negative bacteria): 3 µM; cell survival rate (RAW 264.7 cells): less than 10%
N=C(N)NCCC[C@H](NC(=O)CNC(=O)[C@H]1CCCN1C(=O)[C@H](CCCNC(=N)N)NC(=O)[C@H](CCCNC(=N)N)NC(=O)[C@H](Cc1ccccc1)NC(=O)[C@H](Cc1ccccc1)NC(=O)[C@H](CCCNC(=N)N)NC(=O)[C@H](Cc1ccccc1)NC(=O)[C@@H](N)Cc1ccccc1)C(=O)N[C@@H](CCCNC(=N)N)C(=O)N[C@@H](Cc1ccccc1)C(=O)N[C@@H](Cc1ccccc1)C(=O)N[C@@H](CCCNC(=N)N)C(=O)N[C@@H](Cc1ccccc1)C(=O)N[C@@H](Cc1ccccc1)C(N)=O [FRpG] (H-FFRFFRR[dP]GRRFFRFF-NH2)	16	8	8	32	8 (≈ 18.3 µg/mL)	8 (≈ 18.3 µg/mL)	8 (≈ 18.3 µg/mL)	8	8	8	8	32	8	8 (≈ 18.3 µg/mL)	8	85%	8 (≈ 18.3 µg/mL)	22.6	16 (≈ 36.6 µg/mL)	16 (≈ 36.6 µg/mL)	MIC [3]: 32 µM (≈ 73.1 µg/mL); MIC [4]: 32 µM (≈ 73.1 µg/mL); MIC [5]: 16 µM (≈ 36.6 µg/mL); MIC (E. coli K88): 8 µM (≈ 18.3 µg/mL); MIC [6]: 16 µM (≈ 36.6 µg/mL); MIC [7]: 32 µM (≈ 73.1 µg/mL); GM (geometric mean of MICs), Gram (−) (Gram-negative bacteria): 13.9 µM; cell survival rate (RAW 264.7 cells): 78%
